From patent publication US12018059B2, “Human amylin analog polypeptides and methods of use” (Intarcia Therapeutics, Inc., priority 2018, dated 2024)
One block for each molecule: values may come before it. Starred links: 1 amine or outer side, 2 acyl side, 3 side chain; linkers in the order of their positions; H or OH if unused. Positions of bridges follow the written chain, without caps; N, C: chain ends. Non-standard residues stand in square brackets, D forms with d. Residues, ends and D or L forms follow the SMILES beside them. Groups on a side chain read outwards from the residue. *: point of attachment. γGlu = O=C(O)[C@H](CCC(=O)[*:2])N[*:1]; Palmitoyl = CCCCCCCCCCCCCCCC(=O)*

What was measured:
[1] = Pharmacokinetics, 3-hour intravenous infusion of linear (non-acylated) polypeptides; set-up: species or system Sprague-Dawley rats; settings: rat, in vivo, iv, 0.1 mg/kg
Procedure: Peptides were dissolved in sterile saline and administered as a 3-hour intravenous infusion to non-fasted male Sprague-Dawley rats (n=3 per group) via femoral vein cannula at a final dose of 0.100 mg/kg. […] Blood samples (approximately 250 μL) were collected for pharmacokinetic analysis via a jugular vein cannula at 0.25, 0.5, 1, 2, 3, 3.17, 3.33, 3.5, 4, 4.5, 5, and 6 hr post-start of infusion (long method) or at 1, 1.5, 2, 2.5, and 3 hr post-start of infusion (steady-state screening method). All samples were collected into microtainer tubes containing K2EDTA as anticoagulant and 25 μL of a protease inhibitor cocktail. Plasma was prepared by centrifugation and stored at −80° C. until analysis. The results of this analysis are shown in Table 9 and few exemplars in FIGS. 3a-3b.
A 60 μL aliquot of each plasma sample was placed into to a 96-well plate. To each well was added 6 μL of 0.5% Tween-20. Plates were then vortexed mixed for 10 minutes at 1200 rpm before 180 μL of 0.1% TFA in 2:1 ethanol:acetonitrile containing an appropriate internal standard was added to each well. Plates were vortex mixed for 5 min at 1300 rpm, and then centrifuged for 10 min at 2844×g. Supernatants (180 μL) were placed into a clean 96-well plate and evaporated under a nitrogen stream at 45° C. Residues were reconstituted in 80 μL of 20% acetonitrile (aq) containing 0.1% formic acid.
A […] aliquot of each plasma sample was diluted with […] of 10 mM ammonium acetate (pH 6.8) containing an appropriate internal standard and loaded onto an Oasis WCX microElution plate (Waters Corporation, Milford, MA) that had been pre-conditioned with […] of methanol and […] of deionized water. Samples were washed with […] of 5% ammonium hydroxide (aq) followed by […] of 20% acetonitrile in water. The analyte was eluted with […] of 5% formic acid in 75:25 acetonitrile:water. The eluent was dried under a nitrogen stream. Residues were reconstituted in 80 μL of 20% acetonitrile (aq) containing 0.1% formic acid.
All calibration standards were prepared in control rat plasma containing K2EDTA and protease inhibitor cocktail.
Samples and standards were analyzed by TurbolonSpray™ UPLC-MS/MS using a system consisting of a CTC HTS PAL auto-injector (Leap, Carrboro, NC), an Agilent Infinity 1290 system with column oven (Palo Alto, CA), a Valco switching valve (Houston, TX), and either an AB Sciex API 5600 TripleTOF™ or Sciex API 4000QTrap mass spectrometer (Framingham, MA). Samples were injected onto a 2.1×50 mm reverse phase C18 analytical column, typically a Waters CORTECS UPLC C18+, 1.6 μm (Waters Corporation, Milford, MA) or similar. […] Initial conditions consisted of 90% A and 10% B. The organic component was increased to 95% B over a period of 3-4 minutes, depending on the peptide. Typical flow rates were 600 μL/min. The column temperature was held constant at 40 or 50° C. Peptides were quantified by monitoring one or more product ions produced from a multiply charged parent ion.

in vivo = assay: in vivo; set-up: species or system Sprague-Dawley rats; settings: rat, iv, 0.033 mg/kg
Outline: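 Male Sprague-Dawley rats, non-fasted (n=3), given peptide in saline as 1-h IV or SC infusion at 0.033 mg/kg, or SC bolus at 0.3 mg/kg; jugular blood to 48 h into K2EDTA plus protease inhibitors. Plasma extracted by precipitation or WCX solid-phase extraction, quantified by UPLC-MS/MS against standards in matching rat plasma.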

[2] = molecular target: T1, human calcitonin receptor (hCTR) (Homo sapiens, UniProt P30988); assay: cAMP accumulation functional assay in HEK293-CNG cells expressing hCTR; assay type: cell-based; settings: presence versus absence of HSA (FIG. 2D)
T1 sequence (P30988 25-474): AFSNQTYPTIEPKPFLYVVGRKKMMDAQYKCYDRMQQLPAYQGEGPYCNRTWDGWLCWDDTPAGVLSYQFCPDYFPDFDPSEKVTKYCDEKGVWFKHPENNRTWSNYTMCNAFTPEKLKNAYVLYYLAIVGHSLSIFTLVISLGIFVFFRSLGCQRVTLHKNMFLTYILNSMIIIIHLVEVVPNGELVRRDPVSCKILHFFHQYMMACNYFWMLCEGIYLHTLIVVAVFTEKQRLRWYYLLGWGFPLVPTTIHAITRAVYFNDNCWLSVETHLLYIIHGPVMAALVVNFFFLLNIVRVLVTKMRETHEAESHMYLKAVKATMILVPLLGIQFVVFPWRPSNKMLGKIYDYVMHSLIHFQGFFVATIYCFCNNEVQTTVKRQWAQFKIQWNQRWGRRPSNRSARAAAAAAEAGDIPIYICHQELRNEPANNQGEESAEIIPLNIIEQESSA
Procedure: In the presence of the non-specific cAMP/cGMP phosphodiesterase inhibitor 3-isobutyl-1-methylxanthine (IBMX), accumulating cAMP can be measured in vitro using common detection methods. Thus, it is possible to estimate an in vitro potency (pEC50) for peptides activating each of these receptors using fit dose-response curves for cAMP accumulation.
Cells were carried in growth media for no more than 10 passages prior to testing.
Peptides were serially diluted in the same buffer as above for each given assay condition. Two assay control solutions consisting of 50 mcM forskolin (cAMP system maximum) or assay buffer only (cAMP system minimum) were also prepared in the appropriate stimulation buffers. Five microliters of each peptide-concentration, or assay control was added to triplicate wells and incubated for thirty minutes at room temperature. During this incubation step a 4× europium labelled cAMP tracer solution and a 4× Ulight®-anti-cAMP solution (consisting of an anti-cAMP monoclonal antibody labelled with Ulight™ dye) was prepared according to the manufacturer's protocol (PerkinElmer LANCE Ultra cAMP kit). Following this incubation, 5 mcL europium labelled cAMP and 5 mcL Ulight anti-cAMP antibody was added to wells. The plate was covered with an adhesive cover to prevent evaporation and incubated for 60 minutes at room temperature in the dark. Plates were read on an Envision fluorescent plate reader (PerkinElmer).
Test values were first normalized to the forskolin induced cAMP system maximum and system minimum averaged values in Excel using the formula: (test value−system minavg)/(system maxavg−system minavg)*100. Normalized test values represent a baseline corrected percentage of the system maximum cAMP response induced by forskolin. Normalized data was analyzed from triplicate tests and used to estimate the EC50 for each peptide on each receptor. Data was fit in GraphPad Prism software (v7.04) using a 4-parameter logistic curve model: Y=Bottom+(Top−Bottom)/(1+10^((Log EC50−X))). The Hill slope was constrained to 1.0. EC50 values were converted to pEC50 values using the formula: pEC50=−Log (EC50).

clearance [1]: 13.6 mL/min/kg
Structure (SMILES): CC[C@H](C)[C@H](NC(=O)[C@@H]1CCCN1C(=O)CNC(=O)[C@H](Cc1ccccc1)NC(=O)[C@H](CCC(=O)O)NC(=O)[C@H](CC(N)=O)NC(=O)[C@H](CO)NC(=O)[C@H](CO)NC(=O)[C@H](CCCCN)NC(=O)[C@@H](NC(=O)[C@H](CC(C)C)NC(=O)[C@H](Cc1ccccc1)NC(=O)[C@H](CC(N)=O)NC(=O)[C@H](CO)NC(=O)[C@H](CC(C)C)NC(=O)[C@H](CCCNC(=N)N)NC(=O)[C@H](CCC(N)=O)NC(=O)[C@@H](NC(=O)[C@H](C)NC(=O)[C@@H]1CSSC[C@H](NC(=O)[C@@H](N)CO)C(=O)N[C@@H](CC(N)=O)C(=O)N[C@@H]([C@@H](C)O)C(=O)N[C@@H](CO)C(=O)N[C@@H]([C@@H](C)O)C(=O)N1)[C@@H](C)O)C(C)C)C(=O)N[C@@H](CC(C)C)C(=O)N1CCC[C@H]1C(=O)N1CCC[C@H]1C(=O)N[C@H](C(=O)N[C@@H](CCCCN)C(=O)N[C@H](C(=O)NCC(=O)N[C@@H](CO)C(=O)N[C@@H](CCC(=O)O)C(=O)N[C@H](C(=O)N[C@@H](Cc1ccc(O)cc1)C(N)=O)[C@@H](C)O)C(C)C)[C@@H](C)O [Compound A4] (H-SCNTSTCATQRLSNFLVKSSNEFGPILPPTKVGSETY-NH2; disulfide 2-7)

clearance [1]: 26.4 mL/min/kg
Structure (SMILES): CC[C@H](C)[C@H](NC(=O)[C@@H]1CCCN1C(=O)CNC(=O)[C@H](Cc1ccccc1)NC(=O)[C@H](CCC(=O)O)NC(=O)[C@H](CC(N)=O)NC(=O)[C@H](CO)NC(=O)[C@H](CO)NC(=O)[C@H](CCCCN)NC(=O)[C@@H](NC(=O)[C@@H](CC(C)C)NC(=O)[C@H](Cc1ccccc1)NC(=O)[C@H](CC(N)=O)NC(=O)[C@H](C)NC(=O)[C@H](CC(C)C)NC(=O)[C@H](CCCNC(=N)N)NC(=O)[C@H](CCC(N)=O)NC(=O)[C@@H](NC(=O)[C@H](C)NC(=O)[C@@H]1CSSC[C@H](NC(=O)[C@@H](N)CO)C(=O)N[C@@H](CC(N)=O)C(=O)N[C@@H]([C@@H](C)O)C(=O)N[C@@H](CO)C(=O)N[C@@H]([C@@H](C)O)C(=O)N1)[C@@H](C)O)C(C)C)C(=O)N[C@@H](CC(C)C)C(=O)N1CCC[C@H]1C(=O)N1CCC[C@H]1C(=O)N[C@H](C(=O)N[C@@H](CCCCN)C(=O)N[C@H](C(=O)NCC(=O)N[C@@H](CO)C(=O)N[C@@H](CCC(=O)O)C(=O)N[C@H](C(=O)N[C@@H](Cc1ccc(O)cc1)C(N)=O)[C@@H](C)O)C(C)C)[C@@H](C)O [Compound A6] (H-SCNTSTCATQRLANF[dL]VKSSNEFGPILPPTKVGSETY-NH2; disulfide 2-7; N-terminus assumed)

Vd (in vivo): 0.211 L/kg
clearance (in vivo): 3.56 mL/min/kg
half-life (in vivo): 57.8 min
Structure (SMILES): CCCCCCCCCCCCCCCC(=O)N[C@@H](CCC(=O)NCCCC[C@H](NC(=O)[C@H](CCC(=O)O)NC(=O)[C@H](CC(N)=O)NC(=O)[C@H](C)NC(=O)[C@H](CC(C)C)NC(=O)[C@H](CCCNC(=N)N)NC(=O)[C@H](CCC(N)=O)NC(=O)[C@@H](NC(=O)[C@H](C)NC(=O)[C@@H]1CSSC[C@H](NC(=O)[C@@H](N)CO)C(=O)N[C@@H](CC(N)=O)C(=O)N[C@@H]([C@@H](C)O)C(=O)N[C@@H](CO)C(=O)N[C@@H]([C@@H](C)O)C(=O)N1)[C@@H](C)O)C(=O)N[C@@H](Cc1c[nH]cn1)C(=O)N[C@@H](CCCCN)C(=O)N[C@@H](CO)C(=O)N[C@@H](CO)C(=O)N[C@@H](CC(N)=O)C(=O)N[C@@H](CC(N)=O)C(=O)N[C@@H](Cc1ccccc1)C(=O)NCC(=O)N1CCC[C@H]1C(=O)N[C@H](C(=O)N[C@@H](CC(C)C)C(=O)N1CCC[C@H]1C(=O)N1CCC[C@H]1C(=O)N[C@H](C(=O)N[C@@H](CCCCN)C(=O)N[C@H](C(=O)NCC(=O)N[C@@H](CO)C(=O)N[C@@H](CCC(=O)O)C(=O)N[C@H](C(=O)N[C@@H](Cc1ccc(O)cc1)C(N)=O)[C@@H](C)O)C(C)C)[C@@H](C)O)[C@@H](C)CC)C(=O)O [Compound A125] (H-SCNTSTCATQRLANEK([γGlu-Palmitoyl])HKSSNNFGPILPPTKVGSETY-NH2; disulfide 2-7)

Structure (SMILES): CC[C@H](C)[C@H](NC(=O)[C@H](C)NC(=O)[C@@H](NC(=O)[C@H](CCC(N)=O)NC(=O)[C@@H]1CCCN1C(=O)[C@H](Cc1ccccc1)NC(=O)[C@@H](NC(=O)[C@H](Cc1c[nH]cn1)NC(=O)[C@H](Cc1ccccc1)NC(=O)[C@H](CCCCN)NC(=O)[C@H](CC(N)=O)NC(=O)[C@H](Cc1ccccc1)NC(=O)[C@H](CC(=O)O)NC(=O)[C@H](CCC(N)=O)NC(=O)[C@@H](NC(=O)[C@H](Cc1ccc(O)cc1)NC(=O)[C@@H](NC(=O)CNC(=O)[C@H](CC(C)C)NC(=O)[C@H](CCSC)NC(=O)[C@@H]1CSSC[C@H](N)C(=O)NCC(=O)N[C@@H](CC(N)=O)C(=O)N[C@@H](CC(C)C)C(=O)N[C@@H](CO)C(=O)N[C@@H]([C@@H](C)O)C(=O)N1)[C@@H](C)O)[C@@H](C)O)[C@@H](C)O)[C@@H](C)O)C(=O)NCC(=O)N[C@H](C(=O)NCC(=O)N[C@@H](C)C(=O)N1CCC[C@H]1C(N)=O)C(C)C [hCalcitonin, human calcitonin, reference compound]
effect of HSA on potency at hCTR [2]: unaffected by the presence of HSA
